Reference: US20150173370A1, “S[…] CONTROL FROM COMBINATIONS OF 2,4-D-CHOLINE, GLYPHOSATE, AND GLUFOSINATE” (Dow AgroSciences LLC, priority 2013, published 2015)
“And” between values parts separate entries of the source, which are not always exact repeats. Identical values can stand only once.

How the values were obtained:
AAD12 Soybean (GLXMA) [1] = test: Field trials, crop tolerance (% visual chlorosis); format: in vivo, Glycine max L. (soybean)
Description: Field trials were conducted under agricultural field conditions in multiple states in the United States, including but not limited to Arkansas, Iowa, Illinois, Indiana, Kansas, Minnesota, Mississippi, Missouri, New York, Tennessee and Wisconsin. Trials were established as RCB (randomized complete block) design, with 3-4 replicates per treatment, and plot sizes varying from 5-10 feet (ft) wide by 12-30 ft long. Treatments were applied with small plot backpack sprayers, using pressurized carbon dioxide (CO2) as propellant. Pressure varied from 17-52 pounds per square inch (psi), with spray tips typically of a Flat Fan type applying water diluent at 15 gallons per acre (GPA). Boom sizes varied from 5-11 ft in width. Treatments were applied to soybean, cotton, corn or fallow crop land. Weed sizes varied, but all treatments were applied as post-emergence treatments to weeds from 2 leaf to 2 tiller growth stages varying from 3 to 17 inches in height. The weed spectrum included, but was not limited to, Amaranthus palmeri S. Wats. (Palmer amaranth, AMAPA), Ambrosia trifida L. (giant ragweed, AMBTR), Conyza canadensis (L.) Cronq. (horseweed, ERICA) and Salsola tragus L. (Russian thistle, SASKR). […]
However, the experiments described herein were performed such that active ingredients A and B were combined and only the efficacy of the combination was determined. […]

AAD12 Soybean (GLXMA) [2] = test: Field trials, crop tolerance (% visual necrosis); format: in vivo, Glycine max L. (soybean)
Description: Field trials were conducted under agricultural field conditions in multiple states in the United States, including but not limited to Arkansas, Iowa, Illinois, Indiana, Kansas, Minnesota, Mississippi, Missouri, New York, Tennessee and Wisconsin. Trials were established as RCB (randomized complete block) design, with 3-4 replicates per treatment, and plot sizes varying from 5-10 feet (ft) wide by 12-30 ft long. Treatments were applied with small plot backpack sprayers, using pressurized carbon dioxide (CO2) as propellant. Pressure varied from 17-52 pounds per square inch (psi), with spray tips typically of a Flat Fan type applying water diluent at 15 gallons per acre (GPA). Boom sizes varied from 5-11 ft in width. Treatments were applied to soybean, cotton, corn or fallow crop land. Weed sizes varied, but all treatments were applied as post-emergence treatments to weeds from 2 leaf to 2 tiller growth stages varying from 3 to 17 inches in height. The weed spectrum included, but was not limited to, Amaranthus palmeri S. Wats. (Palmer amaranth, AMAPA), Ambrosia trifida L. (giant ragweed, AMBTR), Conyza canadensis (L.) Cronq. (horseweed, ERICA) and Salsola tragus L. (Russian thistle, SASKR).
Glyphosate-, 2,4-D- and glufosinate-tolerant soybeans, corn or cotton comprising genes for tolerance for each herbicide as described above were used in all trials either as a breeding stack of one to three herbicide-tolerant events or as a molecular stack where all three herbicide tolerance traits were transformed into a single event.
The 2,4-D-choline salt plus glyphosate premix formulation was a 400 g ae/L SL containing 195 g ae/L 2,4-D-choline salt and 205 g ae/L glyphosate-dimethylammonium (DMA) salt. […] All treatments were mixed in water at appropriate formulated product rates to achieve the desired rates as shown based on a unit area of application (hectare). Treatments were rated at 1 to 28 days after application (DAA) as compared to the untreated control plants. The trial sites had naturally occurring populations of weeds. The treated plots and control plots were rated blind at various intervals after application.
Colby's equation was used to determine the herbicidal effects expected from the mixtures (Colby, S. R. Calculation of the synergistic and antagonistic response of herbicide combinations. Weeds 1967, 15, 20-22). A t-test (alpha=0.05) between Colby predictions and observed combinations was used to test for significant differences indicating synergy or antagonism using replicate data.
However, the experiments described herein were performed such that active ingredients A and B were combined and only the efficacy of the combination was determined. As such, Colby's equation simplifies to
Z=observed efficacy of a combination of active ingredient A (2,4-D-choline) and active ingredient B (glyphosate-DMA) at the same concentration as used in the mixture;

CP(=O)(O)CCC(N)C(=O)O (stereo not shown) [Glufosinate-Ammonium, ammonium (3-amino-3-carboxypropyl)(methyl)phosphinate]
Mean % Visual Chlorosis (AAD12 Soybean (GLXMA) [1]; 10 DAA, 1084 g ae/ha alone): 8.5% and 10.0%
Mean % Visual Chlorosis (AAD12 Soybean (GLXMA) [1]; 14 DAA, 542 g ae/ha alone): 5.8%
Mean % Visual Necrosis (AAD12 Soybean (GLXMA) [2]; 2 DAA, 1084 g ae/ha alone): 25.0%
Mean % Visual Necrosis (AAD12 Soybean (GLXMA) [2]; 3 DAA, 542 g ae/ha alone): 0.0%
Mean % Visual Necrosis (AAD12 Soybean (GLXMA) [2]; 3 DAA, 822 g ae/ha alone): 0.8%
Mean % Visual Necrosis (AAD12 Soybean (GLXMA) [2]; 3 DAA, 1084 g ae/ha alone): 3.0% and 8.5% and 1.5% and 1.3%
Mean % Visual Necrosis (AAD12 Soybean (GLXMA) [2]; 5 DAA, 542 g ae/ha alone): 2.8%
Mean % Visual Necrosis (AAD12 Soybean (GLXMA) [2]; 7 DAA, 542 g ae/ha alone): 0.5% and 0.3%
Mean % Visual Necrosis (AAD12 Soybean (GLXMA) [2]; 7 DAA, 822 g ae/ha alone): 0.8% and 0.0% and 10.0% and 1.0% and 1.3%
Mean % Visual Necrosis (AAD12 Soybean (GLXMA) [2]; 7 DAA, 1084 g ae/ha alone): 3.3% and 1.3% and 10.0% and 2.0% and 2.3%
Mean % Visual Necrosis (AAD12 Soybean (GLXMA) [2]; 8 DAA, 822 g ae/ha alone): 7.5%
Mean % Visual Necrosis (AAD12 Soybean (GLXMA) [2]; 8 DAA, 1084 g ae/ha alone): 10.0% and 12.5% and 6.5%
Mean % Visual Necrosis (AAD12 Soybean (GLXMA) [2]; 9 DAA, 822 g ae/ha alone): 6.0%
Mean % Visual Necrosis (AAD12 Soybean (GLXMA) [2]; 10 DAA, 1084 g ae/ha alone): 2.3%
Mean % Visual Necrosis (AAD12 Soybean (GLXMA) [2]; 14 DAA, 822 g ae/ha alone): 0.0% and 1.0%
Mean % Visual Necrosis (AAD12 Soybean (GLXMA) [2]; 14 DAA, 1084 g ae/ha alone): 5.0% and 2.0%
Mean % Visual Necrosis (AAD12 Soybean (GLXMA) [2]; 16 DAA, 542 g ae/ha alone): 3.0%
Mean % Visual Necrosis (AAD12 Soybean (GLXMA) [2]; 16 DAA, 822 g ae/ha alone): 5.0%
Mean % Visual Necrosis (AAD12 Soybean (GLXMA) [2]; 16 DAA, 1084 g ae/ha alone): 1.8%
